# Test results published in US6387905B2, “Compounds useful for inhibition of farnesyl protein transferase” (Schering Corporation, priority 1996, dated 2002).
# Read-outs that look alike come from different tables or passages of the source.
# Key:
# COS Cell = COS Cell IC50 (Cell-Based Assay)
# Description: (§1) FPT IC50 (inhibition of farnesyl protein transferase, in vitro enzyme assay) and COS Cell IC50 (Cell-Based Assay) were determined following the assay procedures described in WO 95/10516, published Apr. 20, 1995. GGPT IC50 (inhibition of geranylgeranyl protein transferase, in vitro enzyme assay), Cell Mat Assay, and anti-tumor activity (in vivo anti-tumor studies) could be determined by the assay procedures described in WO 95/10516. The disclosure of WO 95/10516 is incorporated herein by reference thereto.
# Human tumor cells = test: Soft Agar Assay (anchorage-independent growth); assay type: cell-based; details: Homo sapiens
# Description: Anchorage-independent growth is a characteristic of tumorgenic cell lines. Human tumor cells are suspended in growth medium containing 0.3% agarose and an indicated concentration of a farnesyl transferase inhibitor. The solution is overlayed onto growth medium solidified with 0.6% agarose containing the same concentration of farnesyl transferase inhibitor as the top layer. After the top layer is solidified, plates are incubated for 10-16 days at 37° C. under 5% CO2 to allow colony outgrowth. After incubation, the colonies are stained by overlaying the agar with a solution of MTT (3-[4,5-dimethyl-thiazol-2-yl]-2,5-diphenyltetrazolium bromide, Thiazolyl blue) (1 mg/mL in PBS). Colonies can be counted and the IC50's can be determined.
# [1] = target: farnesyl protein transferase (FPT), H-ras (Homo sapiens, UniProt P49354+P49356); test: FPT IC50 (H-ras), inhibition of farnesyl protein transferase, in vitro enzyme assay; assay type: biochemical
# Description: as §1
# [2] = COS, Table 5, read-out: Cos Cell IC50
# [3] = Table 5, read-out: Soft Agar IC50
# [4] = COS, read-out: Cos Cell IC50, Table 5
# [5] = read-out: Soft Agar IC50, Table 5
Compound,IC50 (Human tumor cells; [3]) [nM],"IC50 ([1]; Table 4, read-out: FPT IC50) [nM]","IC50 ([1]; H-ras, read-out: FPT IC50 (H-ras)) [nM]",IC50 (COS Cell; [2]) [nM],"IC50 (COS Cell; Table 5, read-out: Cos Cell IC50) [nM]",IC50 (COS Cell; [4]) [nM],IC50 (Human tumor cells; [5]) [nM]
CN(C)C(=O)C(=O)N1CCC(CC(=O)N2CCC([C@H]3c4ncc(Br)cc4CCc4cc(Cl)cc(Br)c43)CC2)CC1 [Cmpd 33.0-B],> 120,2.1,–,10,–,–,–
O=C(O)c1cccn1CC(=O)N1CCC(CC(=O)N2CCC([C@H]3c4ncc(Br)cc4CCc4cc(Cl)cc(Br)c43)CC2)CC1 [Cmpd 52.0-B],500,1.3,–,400,–,–,–
O=C(O)CCCCC(=O)N1CCC(CC(=O)N2CCC([C@H]3c4ncc(Br)cc4CCc4cc(Cl)cc(Br)c43)CC2)CC1 [Example 81],–,3.6,–,–,–,30,480
CCOC(=O)CC(CC(=O)N1CCC(CC(=O)N2CCC(C3c4ncc(Br)cc4CCc4cc(Cl)cc(Br)c43)CC2)CC1)OC(C)=O (stereo not shown) [Example 16.0-B],90,5.3,–,16,–,–,–
Cc1nccn1CC(=O)N1CCC(CC(=O)N2CCC([C@H]3c4ncc(Br)cc4CCc4cc(Cl)cc(Br)c43)CC2)CC1 [Cmpd 10.0-B],> 300,2.5,–,20,–,–,–
O=C(CC1CCN(C(=O)Cn2cnc3cccnc32)CC1)N1CCC([C@H]2c3ncc(Br)cc3CCc3cc(Cl)cc(Br)c32)CC1 [Cmpd 13.0-B],> 500,4.1,–,25,–,–,–
O=C(O)CCCCCC(=O)N1CCC(CC(=O)N2CCC([C@H]3c4ncc(Br)cc4CCc4cc(Cl)cc(Br)c43)CC2)CC1 [Example 80],–,1.4,–,–,–,25,250
O=C(O)NC(=O)C(=O)N1CCC(CC(=O)N2CCC([C@H]3c4ncc(Br)cc4CCc4cc(Cl)cc(Br)c43)CC2)CC1 [Cmpd 59.0-B],500,4,–,50,–,–,–

# Further lines, with some results ahead:
IC50 (Human tumor cells; [3]) [nM],"IC50 ([1]; Table 4, read-out: FPT IC50) [nM]","IC50 ([1]; H-ras, read-out: FPT IC50 (H-ras)) [nM]",Compound,IC50 (COS Cell; [2]) [nM],"IC50 (COS Cell; Table 5, read-out: Cos Cell IC50) [nM]",IC50 (COS Cell; [4]) [nM],IC50 (Human tumor cells; [5]) [nM]
> 500,9.2,–,O=C(OCc1ccccc1)c1cccn1CC(=O)N1CCC(CC(=O)N2CCC([C@H]3c4ncc(Br)cc4CCc4cc(Cl)cc(Br)c43)CC2)CC1 [Cmpd 55.0-B],200,–,–,–
460,4.2,–,O=C(CC1CCN(C(=O)Cn2cccc2)CC1)N1CCC([C@H]2c3ncc(Br)cc3CCc3cc(Cl)cc(Br)c32)CC1 [Cmpd 34.0-B],9,–,–,–
> 500,0.7,–,CC(C)(C)OC(=O)N1CC(O)CC1C(=O)N1CCC(CC(=O)N2CCC(C3c4ncc(Br)cc4CCc4cc(Cl)cc(Br)c43)CC2)CC1 (stereo not shown) [Example 24.0-B],100,–,–,–
300,6.4,–,COC(=O)c1cccn1CC(=O)N1CCC(CC(=O)N2CCC([C@H]3c4ncc(Br)cc4CCc4cc(Cl)cc(Br)c43)CC2)CC1 [Cmpd 35.0-B],30,50,–,–
220,4.1,–,NS(=O)(=O)NCC(=O)N1CCC(CC(=O)N2CCC([C@H]3c4ncc(Br)cc4CCc4cc(Cl)cc(Br)c43)CC2)CC1 [Cmpd 39.0-B],16,–,–,–
395,3.9,–,NC(=O)CCCC(=O)N1CCC(CC(=O)N2CCC([C@H]3c4ncc(Br)cc4CCc4cc(Cl)cc(Br)c43)CC2)CC1 [Cmpd 114.0-B],35,–,–,–
320,5.4,–,CC(=O)C(=O)N1CCC(CC(=O)N2CCC([C@H]3c4ncc(Br)cc4CCc4cc(Cl)cc(Br)c43)CC2)CC1 [Cmpd 72.0-B],10,–,–,–
> 500,2.2,–,NCCC(=O)N1CCC(CC(=O)N2CCC([C@H]3c4ncc(Br)cc4CCc4cc(Cl)cc(Br)c43)CC2)CC1 [Cmpd 88.0-B],23,–,–,–
75,3.9,–,O=C(CC1CCN(C(=O)CC2COCCO2)CC1)N1CCC([C@H]2c3ncc(Br)cc3CCc3cc(Cl)cc(Br)c32)CC1 (stereo partly shown) [Cmpd 114.2-B],10,–,–,–
95,3.3,–,NC(=O)CC(=O)N1CCC(CC(=O)N2CCC([C@H]3c4ncc(Br)cc4CCc4cc(Cl)cc(Br)c43)CC2)CC1 [Cmpd 50.0-B],< 10,–,–,–
> 500,–,4.6,COC(=O)C(=O)N1CCC(CC(=O)N2CCC([C@H]3c4ncc(Br)cc4CCc4cc(Cl)cc(Br)c43)CC2)CC1 [Example 104.0-B],40,–,–,–
